Measured values published in paper PMC6001238, “Iterative Chemical Engineering of Vancomycin Leads to Novel Vancomycin Analogs With a High in Vitro Therapeutic Index” (Frontiers in Microbiology, 2018).
In brackets after ≈: the same amount, converted by molar mass.

Columns and labels:
[1] = tested on: E. faecalis VSE 1; assay: MIC, broth microdilution, vancomycin-sensitive E. faecalis (VSE 1); type: cell-based, Enterococcus faecalis; details: for MIC: Enterococcus faecalis VSE 1 (vancomycin-sensitive), read-out: MIC; for MIC-fold improvement vs. vancomycin: VSE 1, ratio of MIC of vancomycin and MIC of analogue
Method in brief: (§1)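 CLSI broth microdilution; water and uninoculated-broth controls; one arm supplemented with vancomycin, final 10 μM, given with analogue or control antibiotic.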

[2] = tested on: E. faecalis VRE 6; assay: MIC, broth microdilution, vancomycin-resistant E. faecalis VRE 6 (VanA); type: cell-based, Enterococcus faecalis; details: for MIC: Enterococcus faecalis VRE 6 (vancomycin-resistant), read-out: MIC; for MIC-fold improvement vs. vancomycin: VRE 6, ratio of MIC of vancomycin and MIC of analogue
Method in brief: as §1

[3] = tested on: E. faecalis VRE 53; assay: MIC, broth microdilution, vancomycin-resistant E. faecalis VRE 53 (VanA); type: cell-based, Enterococcus faecalis; details: for MIC: Enterococcus faecalis VRE 53 (vancomycin-resistant), read-out: MIC; for MIC-fold improvement vs. vancomycin: VRE 53, ratio of MIC of vancomycin and MIC of analogue
Method in brief: as §1

[4] = tested on: E. faecalis VRE 29; assay: MIC, broth microdilution, vancomycin-resistant E. faecalis VRE 29 (VanA); type: cell-based, Enterococcus faecalis; details: for MIC: Enterococcus faecalis VRE 29 (vancomycin-resistant), read-out: MIC; for MIC-fold improvement vs. vancomycin: VRE 29, ratio of MIC of vancomycin and MIC of analogue
Method in brief: as §1

[5] = tested on: E. faecalis VRE 37; assay: MIC, broth microdilution, vancomycin-resistant E. faecalis VRE 37 (VanA); type: cell-based, Enterococcus faecalis; details: for MIC: Enterococcus faecalis VRE 37 (vancomycin-resistant), read-out: MIC
Method in brief: as §1

[6] = tested on: Murine leukemia (L1210) cells; assay: Cytostatic activity, L1210 cell proliferation; type: cell-based; details: mean ± SD of three experiments; highest concentration tested 250 µM; 2 days; read-out: Toxicity (IC50) L1210
Method in brief: (§2)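 Coulter counter cell counts after 37°C culture with compound; IC50 = concentration giving 50% growth inhibition vs negative control. Incubation: L1210 2 d, CEM 3 d, HeLa 4 d. Suspension density before mixing with an equal volume of dilution: 300,000–500,000 cells/mL.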

[7] = tested on: human T-lymphocyte (CEM) cells; assay: Cytostatic activity, CEM cell proliferation; type: cell-based; details: mean ± SD of three experiments; highest concentration tested 250 µM; 3 days; read-out: Toxicity (IC50) CEM
Method in brief: as §2

[8] = tested on: human cervix carcinoma (HeLa) cells; assay: Cytostatic activity, HeLa cell proliferation; type: cell-based; details: mean ± SD of three experiments; highest concentration tested 250 µM; 4 days; read-out: Toxicity (IC50) HeLa
Method in brief: as §2

[9] = tested on: L1210, CEM and HeLa cell lines; assay: Cytostatic activity, average or summary over L1210, CEM and HeLa; type: cell-based; details: average of L1210, CEM and HeLa; read-out: Toxicity (IC50) Average
Method in brief: as §2

[10] = tested on: S. aureus VSSA (ATCC 6538); assay: MIC, broth microdilution, vancomycin-sensitive S. aureus (VSSA/MSSA, ATCC 6538); type: cell-based, Staphylococcus aureus; details: for MIC: Staphylococcus aureus VSSA, read-out: MIC; for MIC-fold improvement vs. vancomycin: VSSA, ratio of MIC of vancomycin and MIC of analogue
Method in brief: as §1

[11] = tested on: S. aureus VISA/HIP5827; assay: MIC, broth microdilution, vancomycin-intermediate S. aureus VISA HIP5827; type: cell-based, Staphylococcus aureus; details: for MIC: Staphylococcus aureus VISA/HIP5827, read-out: MIC; for MIC-fold improvement vs. vancomycin: VISA/HIP5827, ratio of MIC of vancomycin and MIC of analogue
Method in brief: as §1

[12] = tested on: S. aureus VRSA; assay: MIC, broth microdilution, vancomycin-resistant S. aureus (VRSA); type: cell-based, Staphylococcus aureus; details: for MIC: Staphylococcus aureus VRSA, read-out: MIC; for MIC-fold improvement vs. vancomycin: VRSA, ratio of MIC of vancomycin and MIC of analogue
Method in brief: as §1

[13] = tested on: MRSA KS2; assay: MIC, broth microdilution, MRSA KS2; type: cell-based, Staphylococcus aureus; details: for MIC-fold improvement vs. vancomycin: MRSA KS2, ratio of MIC of vancomycin and MIC of analogue; for MIC: Staphylococcus aureus MRSA KS2, read-out: MIC
Method in brief: as §1

[14] = tested on: MRSA KS6; assay: MIC, broth microdilution, MRSA KS6; type: cell-based, Staphylococcus aureus; details: for MIC-fold improvement vs. vancomycin: MRSA KS6, ratio of MIC of vancomycin and MIC of analogue; for MIC: Staphylococcus aureus MRSA KS6, read-out: MIC
Method in brief: as §1

[15] = tested on: MRSA KS89; assay: MIC, broth microdilution, MRSA KS89; type: cell-based, Staphylococcus aureus; details: for MIC-fold improvement vs. vancomycin: MRSA KS8, ratio of MIC of vancomycin and MIC of analogue; for MIC: Staphylococcus aureus MRSA KS8, read-out: MIC
Method in brief: as §1

[16] = tested on: MRSA KS1; assay: MIC, broth microdilution, MRSA KS1; type: cell-based, Staphylococcus aureus; details: for MIC-fold improvement vs. vancomycin: MRSA KS1, ratio of MIC of vancomycin and MIC of analogue; for MIC: Staphylococcus aureus MRSA KS1, read-out: MIC
Method in brief: as §1

[17] = tested on: Clostridium difficile ATJ ribotype 014/20; assay: MIC, plate drop assay, C. difficile ATJ ribotype 014/20; type: cell-based; details: for MIC-fold improvement vs. vancomycin: C. difficile ATJ ribotype 014/20
Method: (§3) Bacterial lawns of both C. difficile strains were prepared by adding 0.5 mL overnight culture to 8 mL sloppy BHI agar (0.4% agar) supplemented with 1.5 g/L CaCl2⋅2H2O and 81.2 g/L MgCl2⋅6H2O, and pouring the mixture into Petri plates. A twofold dilution series of the selected vancomycin analogs, vancomycin ([…]) and daptomycin (25 μM) was spotted (10 μL) on the bacterial lawn. Spots were air-dried and the plates were incubated overnight at 37°C in an anaerobic cabinet. Ultrapure water was included as negative control. The assay was performed in triplicate. Inhibition was observed by cleared spots.

[18] = tested on: Clostridium difficile AIU ribotype 027; assay: MIC, plate drop assay, C. difficile AIU ribotype 027; type: cell-based; details: for MIC-fold improvement vs. vancomycin: C. difficile AIU ribotype 027
Method: as §3

Structure (SMILES) | MIC [1] | MIC-fold improvement vs. vancomycin [1] | MIC [2] | MIC-fold improvement vs. vancomycin [2] | MIC [3] | MIC-fold improvement vs. vancomycin [3] | MIC [4] | MIC-fold improvement vs. vancomycin [4] | MIC [5] | IC50 [6] | IC50 [7] | IC50 [8] | IC50 [9] | MIC [10] | MIC-fold improvement vs. vancomycin [10] | MIC [11] | MIC-fold improvement vs. vancomycin [11] | MIC [12] | MIC-fold improvement vs. vancomycin [12] | MIC-fold improvement vs. vancomycin [13] | also measured
CNC(CC(C)C)C(=O)NC1C(=O)NC(CC(N)=O)C(=O)NC2C(=O)NC3C(=O)NC(C(=O)NC(C(=O)NCCCNC(=O)c4cc5ccccc5o4)c4cc(O)cc(O)c4-c4cc3ccc4O)C(O)c3ccc(c(Cl)c3)Oc3cc2cc(c3OC2OC(CO)C(O)C(O)C2OC2CC(C)(N)C(O)C(C)O2)Oc2ccc(cc2Cl)C1O (stereo not drawn) [Vanc-25] | 0.39 µM (≈ 0.643 µg/mL) | 4 | 0.78 µM (≈ 1.29 µg/mL) | 256 | 25 µM (≈ 41.2 µg/mL) | 16 | 6.25 µM (≈ 10.3 µg/mL) | 64 | 12.5 µM (≈ 20.6 µg/mL) | > 250 µM | > 250 µM | 98 ± 32 µM | 199 µM | 0.39 µM (≈ 0.643 µg/mL) | 2 | 0.39 µM (≈ 0.643 µg/mL) | 16 | 3.13 µM (≈ 5.16 µg/mL) | 32 | 2 | MIC [13]: 0.39 µM (≈ 0.643 µg/mL); MIC-fold improvement vs. vancomycin [14]: 2; MIC [14]: 0.39 µM (≈ 0.643 µg/mL); MIC-fold improvement vs. vancomycin [15]: 2; MIC [15]: 0.39 µM (≈ 0.643 µg/mL); MIC-fold improvement vs. vancomycin [16]: 2; MIC [16]: 0.39 µM (≈ 0.643 µg/mL); MIC-fold improvement vs. vancomycin [17]: 5.6; MIC-fold improvement vs. vancomycin [18]: 4
CNC(CC(C)C)C(=O)NC1C(=O)NC(CC(N)=O)C(=O)NC2C(=O)NC3C(=O)NC(C(=O)NC(C(=O)NCCCNC(=O)c4ccc5cc(OC)ccc5c4)c4cc(O)cc(O)c4-c4cc3ccc4O)C(O)c3ccc(c(Cl)c3)Oc3cc2cc(c3OC2OC(CO)C(O)C(O)C2OC2CC(C)(N)C(O)C(C)O2)Oc2ccc(cc2Cl)C1O (stereo not drawn) [Vanc-29] | 0.20 µM (≈ 0.338 µg/mL) | 8 | 1.56 µM (≈ 2.64 µg/mL) | 128 | 25 µM (≈ 42.2 µg/mL) | 16 | 6.25 µM (≈ 10.6 µg/mL) | 64 | 12.5 µM (≈ 21.1 µg/mL) | > 250 µM | > 250 µM | 54 ± 44 µM | 185 µM | 0.39 µM (≈ 0.659 µg/mL) | 2 | 0.39 µM (≈ 0.659 µg/mL) | 16 | 3.13 µM (≈ 5.29 µg/mL) | 32 | 2 | MIC [13]: 0.39 µM (≈ 0.659 µg/mL); MIC-fold improvement vs. vancomycin [14]: 2; MIC [14]: 0.39 µM (≈ 0.659 µg/mL); MIC-fold improvement vs. vancomycin [15]: 2; MIC [15]: 0.39 µM (≈ 0.659 µg/mL); MIC-fold improvement vs. vancomycin [16]: 2; MIC [16]: 0.39 µM (≈ 0.659 µg/mL); MIC-fold improvement vs. vancomycin [17]: 5.6; MIC-fold improvement vs. vancomycin [18]: 7
CNC(CC(C)C)C(=O)NC1C(=O)NC(CC(N)=O)C(=O)NC2C(=O)NC3C(=O)NC(C(=O)NC(C(=O)NCCCNC(=O)c4ccc(-c5ccc(F)cc5)cc4)c4cc(O)cc(O)c4-c4cc3ccc4O)C(O)c3ccc(c(Cl)c3)Oc3cc2cc(c3OC2OC(CO)C(O)C(O)C2OC2CC(C)(N)C(O)C(C)O2)Oc2ccc(cc2Cl)C1O (stereo not drawn) [Vanc-34] | 0.20 µM (≈ 0.341 µg/mL) | 8 | 0.39 µM (≈ 0.664 µg/mL) | 513 | 12.5 µM (≈ 21.3 µg/mL) | 32 | 3.13 µM (≈ 5.33 µg/mL) | 128 | 6.25 µM (≈ 10.6 µg/mL) | 42 ± 7 µM | 34 ± 2 µM | 110 ± 8 µM | 62 µM | 0.10 µM (≈ 0.17 µg/mL) | 8 | 0.10 µM (≈ 0.17 µg/mL) | 64 | 0.78 µM (≈ 1.33 µg/mL) | 128 | 8 | MIC-fold improvement vs. vancomycin ([5]; VRE 37, ratio of MIC of vancomycin and MIC of analogue): 64; MIC [13]: 0.10 µM (≈ 0.17 µg/mL); MIC-fold improvement vs. vancomycin [14]: 4; MIC [14]: 0.20 µM (≈ 0.341 µg/mL); MIC-fold improvement vs. vancomycin [15]: 4; MIC [15]: 0.20 µM (≈ 0.341 µg/mL); MIC-fold improvement vs. vancomycin [16]: 4; MIC [16]: 0.20 µM (≈ 0.341 µg/mL); MIC-fold improvement vs. vancomycin [17]: 22; MIC ([17]; C. difficile ATJ ribotype 014/20, plate drop assay): 1.56 µM (≈ 2.66 µg/mL); MIC-fold improvement vs. vancomycin [18]: 29; MIC ([18]; C. difficile AIU ribotype 027, plate drop assay): 1.56 µM (≈ 2.66 µg/mL)
